The target in this assay is T1, bovine serum albumin (BSA) (Bos taurus, UniProt P02769).
T1 construct: gene ALB
Briefly: UV absorbance titration at […] nm (binding constant Kb from […]/(A-A0) vs […]/[C] plot). As to conditions: read-out: UV absorbance titration at 280 nm (binding constant Kb from 1/(A-A0) vs 1/[C] pl) (converted).

Counter-ions that a name gives are not always drawn.

T1 sequence (P02769 25-607): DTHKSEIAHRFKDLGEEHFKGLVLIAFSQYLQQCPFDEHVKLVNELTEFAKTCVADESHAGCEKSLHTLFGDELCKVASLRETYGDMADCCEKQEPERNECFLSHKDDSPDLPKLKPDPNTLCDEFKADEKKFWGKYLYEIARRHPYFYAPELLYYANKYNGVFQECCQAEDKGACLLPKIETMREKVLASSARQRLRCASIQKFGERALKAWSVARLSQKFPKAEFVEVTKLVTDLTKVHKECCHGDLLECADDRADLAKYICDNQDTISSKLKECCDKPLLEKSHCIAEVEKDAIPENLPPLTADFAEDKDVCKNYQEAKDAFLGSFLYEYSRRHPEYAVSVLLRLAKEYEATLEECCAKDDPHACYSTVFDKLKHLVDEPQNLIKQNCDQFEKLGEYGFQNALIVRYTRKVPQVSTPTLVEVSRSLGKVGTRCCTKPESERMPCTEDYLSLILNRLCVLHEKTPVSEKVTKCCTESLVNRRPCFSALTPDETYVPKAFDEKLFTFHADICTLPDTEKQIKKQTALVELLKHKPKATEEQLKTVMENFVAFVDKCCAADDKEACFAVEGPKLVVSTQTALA

`O=S(=O)(O)c1ccc(-c2nnc(-c3ccccn3)nc2-c2ccc(S(=O)(=O)O)o2)o1` [L1, 3-(2-pyridyl)-5,6-di(2-furyl)-1,2,4-triazine-5′,5″-disulfonic acid disodium salt]: the Kd is 32.4 µM.

(Values after paper PMC5835287, “Synthesis, Characterization, and BSA-Binding Studies of Novel Sulfonated Zinc-Triazine Complexes” (Bioinorganic Chemistry and Applications, 2018).)
